Reference: PubChem BioAssay AID602296 (Broad Institute, 2012)
Results filed as inconclusive are left out. Activity calls are given as the source filed them.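 How the source made its calls: active means fitted activation curve crossing 40% at a concentration no higher than the sample's top valid tested dose; inconclusive means flat fitted curve at 30% to 70% activation, or poor curve fit; inactive means signal decrease, flat curve within 30%, or the rest.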 Peptide text beside a SMILES is read from it. * marks the point of attachment. Boc = CC(C)(C)OC(=O)*; OtBu = CC(C)(C)O*

Tested on: NIH3T3-HGL HSF-1 response element luciferase, 48 h
Test: sustained heat shock response element induction – cell-based, mouse, luciferase, cherry-pick, dose, confirmation (AID 602296);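 further: test compounds applied by themselves with no MG132 co-treatment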

SMILES	AC40
Cc1nc(SCCOc2ccc(F)cc2)c2ccccc2n1	3.44 µM
O=C(CSc1nc2ccccc2c2nc3ccccc3n12)NCc1ccco1	10.1 µM
CN(C)C(CNC(=O)CCC(=O)c1ccc(Br)cc1)c1ccccc1 (configuration not stated)	> 26 µM (inactive)
COc1cccc(C2C(C(N)=O)=C(C)Nc3nc(-c4cccc(Cl)c4)nn32)c1 (configuration not stated)	> 26 µM (inactive)
Cc1[nH]n(-c2ccccc2)c(=O)c1C=NCCc1ccccc1	9.52 µM
COC(=O)C1CCN(C(=O)COC(=O)c2ccc(OC)c(S(=O)(=O)N3CCCc4ccccc43)c2)CC1	9.15 µM
O=C1c2ccccc2C(=O)N1CCC(=O)N1CCCc2ccccc21	> 26 µM (inactive)
Cc1ccc(NC2c3ncccc3C(=O)N2C2CCCCC2)cc1 (configuration not stated)	> 26 µM (inactive)
COC(=O)C(C)Sc1nc2c(c(=O)n(C)c(=O)n2C)n1CCC(C)C (configuration not stated)	> 26 µM (inactive)
CSC(=NC#N)N1CCN(c2ccc(Cl)cc2)CC1	25.3 µM
COc1cccc(-c2nn(-c3ccccc3)cc2C(=O)n2nnc3ccccc32)c1	> 26 µM (inactive)
O=C1/C(=C/c2ccc([N+](=O)[O-])cc2)Oc2cc(O)ccc21	> 26 µM (inactive)
CC(C)c1ccc(C2NC(=O)c3ccccc3O2)cc1 (configuration not stated)	5.17 µM
CC(C)(C)NC(=O)c1cccc(NC(=O)CSc2ccc(Cl)cc2)c1	> 26 µM (inactive)
NC1=NC(=O)/C(=C/c2cn(Cc3ccccc3)c3ccccc23)S1	9.09 µM
CCOC(=O)C1CCCN(C(=O)c2sc3nc(C)nc(N(CC)CC)c3c2C)C1 (configuration not stated)	> 26 µM (inactive)
O=C(O)c1csc(N/N=C/c2ccc(Br)cc2)n1	> 26 µM (inactive)
Nc1ncnc2c1CCC2	> 26 µM (inactive)
COC(=O)C1NN=C(C(=O)c2ccc(Cl)cc2)C1c1ccc(OC)cc1 (configuration not stated)	> 26 µM (inactive)
CCS(=O)(=O)C(=C1NCCO1)S(=O)(=O)CC	> 26 µM (inactive)
CCc1cccc(NC(=O)c2cccc(S(=O)(=O)N3CCN(C)CC3)c2)c1	> 26 µM (inactive)
COc1cc(NC(=O)Cc2cccs2)ccc1-n1cnnn1	> 26 µM (inactive)

SMILES	AC40
Cc1cccc(NCc2nc3ccccc3n2C)c1	1.61 µM
Cc1c(/C=N/NC(=O)c2ccc(Br)o2)cnn1C	22.4 µM
O=C1C=C(c2ccccc2)CC(/C=C/c2ccccc2)C1 (configuration not stated)	18 µM
COC(=O)c1ccc(N(CC(=O)NC2CCCCC2)C(=O)CNC(=O)c2ccco2)cc1	> 26 µM (inactive)
COc1cccc(NC(=O)CSc2nc(N)cc(N)n2)c1	> 26 µM (inactive)
CCCn1c(SCc2nc3sc(C)c(C)c3c(=O)[nH]2)nc2ccccc2c1=O	> 26 µM (inactive)
CC(C)[C@H](NC(=O)OC(C)(C)C)c1nnc(SCC(=O)Nc2ccc(Br)cc2)o1	> 26 µM (inactive)
N#Cc1ccc(OCCN2CCc3ccccc3C2)cc1	8.01 µM
Cc1nc(-c2ccc(Cl)cc2)sc1C(=O)CBr	11.5 µM
O=C(NNc1cccc(Cl)n1)Nc1ccc(Cl)cc1	> 26 µM (inactive)
COC(=O)C(Cc1ccc(O)cc1)NC(=O)C(CC(=O)OC(C)(C)C)NC(=O)OC(C)(C)C (configuration not stated) (Boc-Asp(OtBu)-Tyr-OMe; configuration not given here)	16.5 µM
CC(C)(C)c1[nH]ncc1[N+](=O)[O-]	> 26 µM (inactive)
Cc1cccc(N2C(=O)C(O)=C(C(=O)c3cccs3)C2c2ccc(C(C)C)cc2)n1 (configuration not stated)	9.04 µM
S=C(NC1CCCCC1)NC1CC2C=CC1C2 (configuration not stated)	> 26 µM (inactive)
CN(/C(=N\S(=O)(=O)c1ccccc1)c1ccccc1)c1ccc(O)cc1	> 26 µM (inactive)
O=C(CSc1nnc(-c2c[nH]c3ccccc23)n1-c1ccc(F)cc1)NCc1ccco1	13.5 µM
CCC(C)c1ccccc1NC(=O)c1cc(C)no1 (configuration not stated)	> 26 µM (inactive)
COc1ccc(/C=C/C(=O)NCCCc2ccccc2)cc1	> 26 µM (inactive)
O=C(NCC1CCCO1)c1nn2c(C(F)(F)F)cc(-c3cc(Br)cs3)nc2c1Br (configuration not stated)	> 26 µM (inactive)
COc1ccc2c(c1OC)C(=O)OC2Nc1nc(-c2ccccc2)cs1 (configuration not stated)	> 26 µM (inactive)
CCOc1ccc2nc(COC(=O)c3cccc([N+](=O)[O-])c3)c(C(C)=O)[n+]([O-])c2c1	> 26 µM (inactive)
CCOc1cccc(/C=C/c2ccc3cccc(O)c3n2)c1OC	> 26 µM (inactive)

SMILES	AC40
O=C(CSCc1ccc(Br)cc1)N1CCCC1	11.3 µM
CC(C)(CN)CC(=O)O	> 26 µM (inactive)
Nn1cnnc1N/N=C/c1cc([N+](=O)[O-])c(Cl)cc1Cl	> 26 µM (inactive)
COC(=O)CC/C(O)=C1/C(=N)CC(C)(C)CC1=O	> 12 µM (inactive)
Nc1cc(-c2ccco2)no1	> 26 µM (inactive)
CC1=CC(=O)C=C(C)C1=NOC(=O)/C=C\c1ccccc1	> 26 µM (inactive)
COc1ccccc1C(=O)CSc1nnc(-c2ccco2)o1	11.7 µM
CNc1nc(-c2ccccc2)cc(C)c1S(C)(=O)=O	> 26 µM (inactive)
COc1c(Br)cc(Br)cc1C(=O)O	> 26 µM (inactive)
CCC(Sc1nc2cc3c(cc2c(=O)n1Cc1ccco1)OCO3)C(=O)NCCOC (configuration not stated)	> 26 µM (inactive)
Clc1ncnc2scc(C3COc4ccccc4O3)c12 (configuration not stated)	17.7 µM
CCOC(=O)C(CCOc1cccc(CC)c1)C(=O)OCC	> 26 µM (inactive)
COc1ccc(Cc2nnc(SCC(=O)Nc3ccc(N4CCOCC4)cc3)o2)cc1	> 26 µM (inactive)
O=c1[nH][nH]c(-c2ccccc2O)c1C(C[N+](=O)[O-])c1ccccc1 (configuration not stated)	16.9 µM
Cc1ccc(NC(=O)Cn2c(CCC(=O)O)ccc2-c2cccs2)cc1	> 26 µM (inactive)
O=C(O)C1CCCCC1C(=O)Nc1ccc2c(c1)CCC2 (configuration not stated)	5.08 µM
Cc1ccc(O)c(NC(=O)c2onc(C)c2Cl)c1	> 26 µM (inactive)
Cc1ccc(S(=O)(=O)N(CC(=O)NCc2ccco2)Cc2ccc(F)cc2)cc1	> 26 µM (inactive)
O=C1c2cccc3cccc(c23)C(=O)N1OS(=O)(=O)c1ccccc1	16 µM
CCOC(=O)c1cnc2ccc(C)cc2c1Sc1ccc(F)cc1	> 12 µM (inactive)
O=C(OCc1csc(-c2ccccc2)n1)c1cccs1	0.901 µM
CCOC(=O)/C=C(\C)Nc1cc(C)nn1-c1ccccc1	17.2 µM

SMILES	AC40
O=C(CSc1nnc(-c2ccc(F)cc2)c2ccccc12)Nc1ccccc1	18.7 µM
CC(C)(C)NC(=O)NC(=O)CN1CC=C(c2ccccc2)CC1	> 26 µM (inactive)
Cn1ncc(Br)c1C(=O)N1CCOCC1	> 26 µM (inactive)
C=CCOc1ccc(-c2nc3c(c(=O)[nH]c(=O)n3Cc3ccccc3)n2CCCOC)cc1	> 26 µM (inactive)
S=c1[nH]cc(Cc2ccccc2)s1	23.4 µM
COCc1cc(=O)[nH]c(SCCS(=O)(=O)c2ccc(Cl)cc2Cl)n1	> 12 µM (inactive)
C/C(=N\NC(=O)c1ccoc1C)c1cccc2ccccc12	10.2 µM
CCCCC(=O)OCC(=O)c1[nH]c(C)c(C(=O)OCC)c1C	7.5 µM
COC(=O)C1(O)CC(CC(C)C)=NN1C(=O)c1ccccc1 (configuration not stated)	20.3 µM
CCCSc1nnc2n(-c3ccccc3OC)c(=O)c3c4c(sc3n12)CCC4	> 26 µM (inactive)
CC1(C)Cc2c(C#N)c(N)n(-c3ccccc3)c(=S)c2CO1	> 26 µM (inactive)
CC(C)(C)NC(=O)c1ccc2c(c1)N(CC(=O)N1CCCCC1)C(=O)C(C)(C)O2	> 26 µM (inactive)
O=C(CSc1nccn(-c2ccc(F)c(F)c2)c1=O)NC1CCCC1	> 26 µM (inactive)
CC(C)(C)C(=O)NCC12C=CC(O1)C1C(=O)N(c3ccccc3)C(=O)C12 (configuration not stated)	> 26 µM (inactive)
Cn1c(=O)oc2cc(S(=O)(=O)N3CCCCC3)ccc21	> 26 µM (inactive)
O=C(CCS(=O)(=O)c1ccccc1)Nc1ccccn1	> 26 µM (inactive)
OC(CNCc1cccc(Cl)c1)c1ccccc1 (configuration not stated)	24.8 µM
Cc1ccc(-c2csc(NC(=O)c3cccc([N+](=O)[O-])c3)n2)cc1	> 26 µM (inactive)
CCC(=O)Nc1cccc(C(=O)/C=C/c2ccc(F)cc2)c1	11.2 µM
CCC(C)n1c(SCC(=O)NC(=O)Nc2ccc3c(c2)OCCO3)nc2ccccc2c1=O (configuration not stated)	> 26 µM (inactive)
CCN(CC)CCCNC(=O)CSc1c2c(nc3cc(Cl)ccc13)CCCC2	22 µM
O=C(N/N=C/c1ccc(-c2cccc([N+](=O)[O-])c2)o1)c1ccccc1O	> 26 µM (inactive)

SMILES	AC40
O=C1CCCN1CCCN=c1c([N+](=O)[O-])nn(-c2ccc(Cl)cc2)n1O	> 12 µM (inactive)
C[C@H](NC(=O)[C@@H]1CSC2c3ccccc3C(=O)N21)C(=O)NCCc1ccccc1 (some centres not stated)	24.7 µM
Cc1ccc(C(=O)NC(=C(Cl)Cl)S(=O)(=O)c2ccc(Cl)cc2)cc1	8.29 µM
Cc1[nH]c2ccccc2c1/C=C(\C#N)C(=O)NCC1CCCO1 (configuration not stated)	9.18 µM
Cn1cc(C=O)c(-c2ccc3c(c2)OCCCO3)n1	3.77 µM
Cc1cnn(-c2cc(N/N=C/c3cccc(F)c3)ncn2)c1	9.32 µM
Cc1nc(S(=O)(=O)c2ccc(Cl)cc2)c(NCc2ccccc2)o1	> 26 µM (inactive)
CCC(=O)N1CCN(c2ccc(NC(=O)COc3ccc(C)cc3C)cc2)CC1	> 26 µM (inactive)
Cc1cc(C)cc(NC(=O)CN(C)S(=O)(=O)c2cnc[nH]2)c1	> 26 µM (inactive)
CNC(=O)C1CC(=O)N(c2ccc(OCC(=O)N3CCCC3)cc2)C1 (configuration not stated)	> 26 µM (inactive)
CC(=O)Nc1cccc(-n2nnc(SCC(=O)Nc3ccc(F)c(Cl)c3)n2)c1	> 26 µM (inactive)
Cc1ccc(-c2nn(-c3cc(Cl)ccc3[N+](=O)[O-])c(=O)c3ccccc23)cc1	> 26 µM (inactive)
C=CCN(C(=O)CCC(=O)Nc1cc(C)on1)C(C(=O)NC(C)(C)C)c1cccc(OC)c1OC (configuration not stated)	> 26 µM (inactive)
S=C(N/N=C/c1cccs1)NC1CC2CCC1C2 (configuration not stated)	4.41 µM
N#C/C(=C(\O)C(F)(F)F)c1nnc2n1CCCCC2	> 26 µM (inactive)
Cc1cc(C)cc(OCC(O)CN2C(=O)NC(C)(C)C2=O)c1 (configuration not stated)	> 26 µM (inactive)
Cc1ccc(=O)n(C(C(=O)NCc2ccco2)C(=O)c2ccc(F)cc2)c1 (configuration not stated)	> 26 µM (inactive)
CC(C)CCN=CC1=C(O)CC(c2ccccc2)CC1=O (configuration not stated)	> 26 µM (inactive)
Cc1csc2nc(CCNS(=O)(=O)c3cccs3)cn12	2.76 µM
